# PubChem BioAssay AID2060613 (Molecular Pharmacology Branch, DTP, NCI, 2025)
# Test system: 233499-124-R-J3-PDC complex spheroid viability
# Assay: Anticancer human tumor 233499-124-R-J3-PDC patient-derived colon adenocarcinoma cell line growth inhibition [CLK]
# Conditions: for IC50: curve of first compound; for viability, T/C: stronger effect = lower value
# Summary of the method: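 Patient-derived tumor cells grown as complex spheroids with HUVEC endothelial cells and mesenchymal stem cells, treated with drug combinations. Concentrations descend in half-log steps from near clinical Cmax, or from 10 microM if Cmax unknown.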
# [1] = second compound 0.0316 µM, first compound 0.0316 µM
# [2] = second compound 0.0316 µM, first compound 0.1 µM
# [3] = second compound 0.0316 µM, first compound 0.316 µM
# [4] = second compound 0.0316 µM, first compound 1 µM
# [5] = second compound 0.0316 µM, first compound 3.16 µM
# [6] = second compound 0.0316 µM, first compound 10 µM
# [7] = second compound 0.1 µM, first compound 0.0316 µM
# [8] = second compound 0.1 µM, first compound 0.1 µM
# [9] = second compound 0.1 µM, first compound 0.316 µM
# [10] = second compound 0.1 µM, first compound 1 µM
# [11] = second compound 0.1 µM, first compound 3.16 µM
# [12] = second compound 0.1 µM, first compound 10 µM
# [13] = second compound 0.316 µM, first compound 0.0316 µM
# [14] = second compound 0.316 µM, first compound 0.1 µM
# [15] = second compound 0.316 µM, first compound 0.316 µM
# [16] = second compound 0.316 µM, first compound 1 µM
# [17] = second compound 0.316 µM, first compound 3.16 µM
# [18] = second compound 0.316 µM, first compound 10 µM
# [19] = second compound 1 µM, first compound 0.0316 µM
# [20] = second compound 1 µM, first compound 0.1 µM
# [21] = second compound 1 µM, first compound 0.316 µM
# [22] = second compound 1 µM, first compound 1 µM
# [23] = second compound 1 µM, first compound 3.16 µM
# [24] = second compound 1 µM, first compound 10 µM
# [25] = second compound 3.16 µM, first compound 0.0316 µM
# [26] = second compound 3.16 µM, first compound 0.1 µM
# [27] = second compound 3.16 µM, first compound 0.316 µM
# [28] = second compound 3.16 µM, first compound 1 µM
# [29] = second compound 3.16 µM, first compound 3.16 µM
# [30] = second compound 3.16 µM, first compound 10 µM
# [31] = second compound 10 µM, first compound 0.0316 µM
# [32] = second compound 10 µM, first compound 0.1 µM
# [33] = second compound 10 µM, first compound 0.316 µM
# [34] = second compound 10 µM, first compound 1 µM
# [35] = second compound 10 µM, first compound 3.16 µM
# [36] = second compound 10 µM, first compound 10 µM
# 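Note: spheroids exposed to the drug combinations for seven days.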
# 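Throughout, for viability, T/C: percent viability relative to DMSO vehicle control wells taken as 100%.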
structure (smiles),measurement,setting,value
COc1ccc([C@@H](O)c2cc(-c3ncnc4cc(N5CCOCC5)ccc34)c(F)cc2Cl)nn1 + CN1CCN(c2cc(C(=O)Nc3cc4cc(-c5cnn(C)c5)ccc4cn3)ccn2)CC1,IC50,second compound 0.0316 µM,> 10 µM
same,IC50,second compound 0.1 µM,9.83 µM
same,IC50,second compound 0.316 µM,8.5 µM
same,IC50,second compound 1 µM,< 0.0316 µM
same,IC50,second compound 3.16 µM,< 0.0316 µM
same,IC50,second compound 10 µM,< 0.0316 µM
same,"viability, T/C",[1],101%
same,"viability, T/C",[2],99.3%
same,"viability, T/C",[3],102%
same,"viability, T/C",[4],105%
same,"viability, T/C",[5],83%
same,"viability, T/C",[6],56.7%
same,"viability, T/C",[7],98.7%
same,"viability, T/C",[8],95%
same,"viability, T/C",[9],105%
same,"viability, T/C",[10],93.7%
same,"viability, T/C",[11],78.9%
same,"viability, T/C",[12],49.5%
same,"viability, T/C",[13],80.5%
same,"viability, T/C",[14],92.5%
same,"viability, T/C",[15],96%
same,"viability, T/C",[16],88.3%
same,"viability, T/C",[17],87.7%
same,"viability, T/C",[18],43.8%
same,"viability, T/C",[19],0.59%
same,"viability, T/C",[20],0.54%
same,"viability, T/C",[21],0.4%
same,"viability, T/C",[22],0.92%
same,"viability, T/C",[23],0.89%
same,"viability, T/C",[24],0.79%
same,"viability, T/C",[25],0.54%
same,"viability, T/C",[26],0.7%
same,"viability, T/C",[27],0.68%
same,"viability, T/C",[28],0.83%
same,"viability, T/C",[29],0.94%
same,"viability, T/C",[30],1.93%
same,"viability, T/C",[31],0.36%
same,"viability, T/C",[32],0.41%
same,"viability, T/C",[33],0.43%
same,"viability, T/C",[34],0.46%
same,"viability, T/C",[35],0.73%
same,"viability, T/C",[36],1.14%
C=CC(=O)N1CCN(c2nc(=O)n(-c3c(C)ccnc3C(C)C)c3nc(-c4c(O)cccc4F)c(F)cc23)C(C)C1 (stereo not drawn) + CNC(=O)c1ccc(Nc2nc(OC3CCCC3)c3c(-c4ccc5nc(C)oc5c4)c[nH]c3n2)c(OC)c1,IC50,second compound 0.0316 µM,> 10 µM
same,IC50,second compound 0.1 µM,> 10 µM
same,IC50,second compound 0.316 µM,> 10 µM
same,IC50,second compound 1 µM,> 10 µM
same,IC50,second compound 3.16 µM,> 10 µM
same,IC50,second compound 10 µM,> 10 µM
same,"viability, T/C",[1],84.8%
same,"viability, T/C",[2],86.5%
same,"viability, T/C",[3],94.4%
same,"viability, T/C",[4],93.6%
same,"viability, T/C",[5],96.3%
same,"viability, T/C",[6],98.3%
same,"viability, T/C",[7],79.6%
same,"viability, T/C",[8],71.6%
same,"viability, T/C",[9],72.6%
same,"viability, T/C",[10],79.7%
same,"viability, T/C",[11],85.2%
same,"viability, T/C",[12],77.5%
same,"viability, T/C",[13],75.9%
same,"viability, T/C",[14],76.4%
same,"viability, T/C",[15],75.8%
same,"viability, T/C",[16],75.4%
same,"viability, T/C",[17],80.5%
same,"viability, T/C",[18],82.8%
same,"viability, T/C",[19],81.2%
same,"viability, T/C",[20],73.7%
same,"viability, T/C",[21],74.3%
same,"viability, T/C",[22],87.5%
same,"viability, T/C",[23],90%
same,"viability, T/C",[24],86.4%
same,"viability, T/C",[25],68.5%
same,"viability, T/C",[26],71.3%
same,"viability, T/C",[27],65.7%
same,"viability, T/C",[28],86.7%
same,"viability, T/C",[29],80.5%
same,"viability, T/C",[30],76.7%
same,"viability, T/C",[31],71.2%
same,"viability, T/C",[32],78.4%
same,"viability, T/C",[33],69.6%
same,"viability, T/C",[34],74.8%
same,"viability, T/C",[35],81%
same,"viability, T/C",[36],91.2%
CCCS(=O)(=O)Nc1ccc(F)c(C(=O)c2c[nH]c3ncc(-c4ccc(Cl)cc4)cc23)c1F + CNC(=O)c1ccc(Nc2nc(OC3CCCC3)c3c(-c4ccc5nc(C)oc5c4)c[nH]c3n2)c(OC)c1,IC50,second compound 0.0316 µM,> 10 µM
same,IC50,second compound 0.1 µM,> 10 µM
same,IC50,second compound 0.316 µM,8.4 µM
same,IC50,second compound 1 µM,5.87 µM
same,IC50,second compound 3.16 µM,5.07 µM
same,IC50,second compound 10 µM,4.15 µM
same,"viability, T/C",[1],89.6%
same,"viability, T/C",[2],96.5%
same,"viability, T/C",[3],103%
same,"viability, T/C",[4],102%
same,"viability, T/C",[5],97.9%
same,"viability, T/C",[6],64.9%
same,"viability, T/C",[7],75.7%
same,"viability, T/C",[8],86.8%
same,"viability, T/C",[9],82.2%
same,"viability, T/C",[10],86.8%
same,"viability, T/C",[11],85.5%
same,"viability, T/C",[12],50%
same,"viability, T/C",[13],75.9%
same,"viability, T/C",[14],87.4%
same,"viability, T/C",[15],90.6%
same,"viability, T/C",[16],90.3%
same,"viability, T/C",[17],90.3%
same,"viability, T/C",[18],43.4%
same,"viability, T/C",[19],90.1%
same,"viability, T/C",[20],90.5%
same,"viability, T/C",[21],78.7%
same,"viability, T/C",[22],85.3%
same,"viability, T/C",[23],91%
same,"viability, T/C",[24],18%
same,"viability, T/C",[25],76.1%
same,"viability, T/C",[26],90.1%
same,"viability, T/C",[27],84.6%
same,"viability, T/C",[28],83.6%
same,"viability, T/C",[29],76.5%
same,"viability, T/C",[30],11.9%
same,"viability, T/C",[31],76.7%
same,"viability, T/C",[32],78.4%
same,"viability, T/C",[33],79.2%
same,"viability, T/C",[34],81.3%
same,"viability, T/C",[35],60.9%
same,"viability, T/C",[36],14.6%
COC1C=CCC(C)C(C)S(=O)(=O)NC(=O)c2ccc3c(c2)N(CC2CCC21)CC1(CCCc2cc(Cl)ccc21)CO3 (stereo not drawn) + CNC(=O)c1ccc(Nc2nc(OC3CCCC3)c3c(-c4ccc5nc(C)oc5c4)c[nH]c3n2)c(OC)c1,IC50,second compound 0.0316 µM,4.62 µM
same,IC50,second compound 0.1 µM,0.135 µM
same,IC50,second compound 0.316 µM,0.135 µM
same,IC50,second compound 1 µM,0.113 µM
same,IC50,second compound 3.16 µM,0.0595 µM
same,IC50,second compound 10 µM,0.129 µM
same,"viability, T/C",[1],90.8%
same,"viability, T/C",[2],93.5%
same,"viability, T/C",[3],92.5%
same,"viability, T/C",[4],82.2%
same,"viability, T/C",[5],71.2%
same,"viability, T/C",[6],9.78%
same,"viability, T/C",[7],83.2%
same,"viability, T/C",[8],57.4%
same,"viability, T/C",[9],29.4%
same,"viability, T/C",[10],19%
same,"viability, T/C",[11],33.8%
same,"viability, T/C",[12],11.7%
same,"viability, T/C",[13],79%
same,"viability, T/C",[14],61%
same,"viability, T/C",[15],19%
same,"viability, T/C",[16],9.42%
same,"viability, T/C",[17],8.88%
same,"viability, T/C",[18],9.03%
same,"viability, T/C",[19],81.2%
same,"viability, T/C",[20],51.6%
same,"viability, T/C",[21],29.8%
same,"viability, T/C",[22],10.1%
same,"viability, T/C",[23],9.03%
same,"viability, T/C",[24],6.79%
same,"viability, T/C",[25],69.2%
same,"viability, T/C",[26],33.6%
same,"viability, T/C",[27],19.7%
same,"viability, T/C",[28],12.3%
same,"viability, T/C",[29],7%
same,"viability, T/C",[30],7.88%
same,"viability, T/C",[31],60.6%
same,"viability, T/C",[32],59.5%
same,"viability, T/C",[33],17.5%
same,"viability, T/C",[34],11.5%
same,"viability, T/C",[35],7.72%
same,"viability, T/C",[36],5.45%
